For 25 compounds, IC50 results are on record in US20230031406A1, “COMPOUNDS AND COMPOSITIONS FOR TREATING CONDITIONS ASSOCIATED WITH NLRP ACTIVITY” (Novartis AG, priority 2018, published 2023).

As usually defined, the IC50 is the concentration that gives 50% inhibition.

Each structure is given as a SMILES string.

One test has as its system PMA-differentiated THP-1 cells. The experiment in a line: IL-1β production in PMA-differentiated THP-1 cells stimulated with gramicidin (hTHP-1 assay containing 2% fetal bovine serum; Procedures 1 and 2). The test is classed as cell-based, human. To be noted: Homo sapiens, THP-1, Table B1; 2% fetal bovine serum; class symbols; read-out: Average IC50 of compounds in hTHP-1 assay: hTHP-1 IC50. In outline: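 THP-1 cells were differentiated with PMA (20 ng/ml, 16-18 h), detached, and plated at 50,000 cells/well in RPMI 1640 with 2% FBS. They were pre-treated with compound (0.0017–100 μM, 0.37% DMSO) for 1 h, then stimulated with gramicidin (5 μM) for 2 h. Supernatant IL-1β was measured by HTRF.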
For the compound `CC(C)(O)c1cc(F)c(S(N)(=O)=NC(=O)Nc2c3c(nc4c2CCC42CC2)CCC3)s1` (centres unmarked) [Compound 101, 3-fluoro-5-(2-hydroxypropan-2-yl)-N′-((1′,5′,6′,7′-tetrahydro-2′H-spiro[cyclopropane-1,3′-dicyclopenta[b,e]pyridin]-8′-yl)carbamoyl)thiophene-2-sulfonimidamide], the IC50 lay in the range of 40 to 200 nM.
On the same count and under the same terms, under `CC(C)(O)c1ncc(S(=N)(=O)NC(=O)Nc2c3c(nc4c2CCC4)CCC3)s1` (centres unmarked) [Compound 128, N-((1,2,3,5,6,7-hexahydrodicyclopenta[b,e]pyridin-8-yl)carbamoyl)-2-(2-hydroxypropan-2-yl)thiazole-5-sulfonimidamide] stands 200 to 1000 nM; under `CCc1c(C)nc2c(c1NC(=O)N=S(N)(=O)c1cnc(C(C)(C)O)s1)CCC2` (single isomer, unassigned) [Compound 117b, (R) or (S)-N′-((3-ethyl-2-methyl-6,7-dihydro-5H-cyclopenta[b]pyridin-4-yl)carbamoyl)-2-(2-hydroxypropan-2-yl)thiazole-5-sulfonimidamide], 5000 to 30000 nM; under `CC1(C)CCc2c1nc1c(c2NC(=O)N=S(N)(=O)c2cnc(C(C)(O)CO)s2)CCC1` (single isomer, unassigned) [Compound 201a, (R, R) or (S, R) or (R, S) or (S, S)-2-(1,2-Dihydroxypropan-2-yl)-N′-((3,3-dimethyl-1,2,3,5,6,7-hexahydrodicyclopenta [b,e]pyridin-8-yl)carbamoyl) thiazole-5-sulfonimidamide], 40 to 200 nM.
Same read-out and setting: under `CC(C)(O)c1ncc(S(N)(=O)=NC(=O)Nc2c3c(nc4c2CCC4)CCCC3)s1` (centres unmarked) [Compound 161, N′-((2,3,5,6,7,8-hexahydro-1H-cyclopenta[b]quinolin-9-yl)carbamoyl)-2-(2-hydroxypropan-2-yl)thiazole-5-sulfonimidamide] stands 1000 to 5000 nM.

Staying with this test, now noted: Homo sapiens, THP-1, Table B2; 2% fetal bovine serum; class symbols; read-out: hTHP-1 IC50.
In the case of `CC(C)c1nc2c(cc1NC(=O)N=[S@@](N)(=O)c1cnc(C(C)(C)O)s1)CCC2` [Compound 601b], the half-maximal inhibitory concentration (IC50) is 5000 to 30000 nM.
The same measure, in the same setting: the result for `Cc1c(C2CC2)nc2c(c1NC(=O)N=S(N)(=O)c1cnn3c1OCCC3)CCC2` (centres unmarked) [Compound 306, N′-((2-cyclopropyl-3-methyl-6,7-dihydro-5H-cyclopenta[b]pyridin-4-yl)carbamoyl)-6,7-dihydro-5H-pyrazolo[5,1-b][1,3]oxazine-3-sulfonimidamide] reads 5000 to 30000 nM; that for `Cc1c(C(F)(F)F)nc2c(c1NC(=O)N=S(N)(=O)c1ccn(C(C)C)n1)CCC2` (centres unmarked) [Compound 628, 1-Isopropyl-N′-((3-methyl-2-(trifluoromethyl)-6,7-dihydro-5H-cyclopenta[b]pyridin-4-yl)carbamoyl)-1H-pyrazole-3-sulfonimidamide], 200 to 1000 nM.
The same measure, in the same setting: under `CCc1nc2c(c(NC(=O)N=S(N)(=O)c3cc(C(C)(C)O)cs3)c1C1CC1)CCC2` (centres unmarked) [Compound 654, N′-((3-cyclopropyl-2-ethyl-6,7-dihydro-5H-cyclopenta[b]pyridin-4-yl)carbamoyl)-4-(2-hydroxypropan-2-yl)thiophene-2-sulfonimidamide] stands 200 to 1000 nM.
The same measure, in the same setting: under `Cc1c(C2(C)CC2)nc2c(c1NC(=O)N=S(N)(=O)c1cnc(C(C)(C)O)s1)CCC2` (centres unmarked) [Compound 641, 2-(2-Hydroxypropan-2-yl)-N′-((3-methyl-2-(1-methylcyclopropyl)-6,7-dihydro-5H-cyclopenta[b]pyridin-4-yl)carbamoyl)thiazole-5-sulfonimidamide] stands 5000 to 30000 nM; under `C[C@@H]1CCc2c1nc1c(c2NC(=O)N=S(N)(=O)c2nn(C(F)F)cc2F)CCC1` (some centres unmarked) [Compound 718a], 40 to 200 nM.

Staying with this test, now noted: Homo sapiens, THP-1, Table B3; hTHP-1 assay, 2% fetal bovine serum; class symbols; read-out: IC50.
Turning to `C[C@@](O)(CO)c1cc(F)c(S(N)(=O)=NC(=O)Nc2c3c(nc4c2CCC42CC2)CCC3)s1` (stereo partly drawn) [Example 607, 5-((R)-1,2-dihydroxypropan-2-yl)-3-fluoro-N′-((1′,5′,6′,7′-tetrahydro-2′H-spiro[cyclopropane-1,3′-dicyclopenta[b,e]pyridin]-8′-yl)carbamoyl)thiophene-2-sulfonimidamide], the IC50 was in the range of 200 to 1000 nM.
Same read-out and setting: the result for `CCn1ccc(S(N)(=O)=NC(=O)Nc2c3c(nc(C4CC4)c2C2CC2)CCC3)n1` (centres unmarked) [Example 632, N′-((2,3-dicyclopropyl-6,7-dihydro-5H-cyclopenta[b]pyridin-4-yl)carbamoyl)-1-ethyl-1H-pyrazole-3-sulfonimidamide] reads 1000 to 5000 nM.

The same test, now with this note: Homo sapiens, THP-1, Table B4; 2% fetal bovine serum; class symbols; read-out: hTHP-1 IC50.
On to `Cc1c(C(F)(F)F)nc(C(F)(F)F)c(C)c1NC(=O)N=S(N)(=O)c1cc(C(C)(C)O)cs1` (centres unmarked) [Example 738, N′-((3,5-dimethyl-2,6-bis(trifluoromethyl)pyridin-4-yl)carbamoyl)-4-(2-hydroxypropan-2-yl)thiophene-2-sulfonimidamide], for which the IC50 was 1000 to 5000 nM.

The same test, now with this note: Table B1; 2% fetal bovine serum; class symbols; read-out: Average IC50 of compounds in hTHP-1 assay: hTHP-1 IC50.
As for `CC(C)n1ccc(S(N)(=O)=NC(=O)Nc2c3c(nc4c2CCC42CC2)CCC3)n1` (single isomer, unassigned) [Compound 172a, (S) or (R)-1-Isopropyl-N′-((1′,5′,6′,7′-tetrahydro-2′H-spiro[cyclopropane-1,3′-dicyclopenta[b,e]pyridin]-8′-yl)carbamoyl)-1H-pyrazole-3-sulfonimidamide], the 50% inhibitory concentration (IC50) lay in the range of 5000 to 30000 nM.
Still for that read-out and setting: the result for `C[C@H]1CCc2c1nc1c(c2NC(=O)N=[S@@](N)(=O)c2cnc(C(C)(C)O)s2)CCC1` [Compound 162ba, (R,S)-2-(2-hydroxypropan-2-yl)-N′-((3-methyl-1,2,3,5,6,7-hexahydrodicyclo-penta[b,e]pyridin-8-yl)carbamoyl)thiazole-5-sulfonimidamide] reads 200 to 1000 nM; that for `CC1CCc2c1nc1c(c2NC(=O)N=S(N)(=O)c2cc(C(C)(C)O)cs2)CCC1C` (single isomer, unassigned) [Compound 131c, (S,R,S) and (S,S,R) or (S,R,R) or (S,S,S)-N′-((3,5-dimethyl-1,2,3,5,6,7-hexa-hydrodicyclo-penta[b,e]pyridin-8-yl)carbamoyl)-4-(2-hy-droxypropan-2-yl)thiophene-2-sulfonimidamide], 5000 to 30000 nM.
On the same count and under the same terms, under `CC(C)c1ncc(F)c(C(C)C)c1NC(=O)N=S(N)(=O)c1sc(C(C)(C)O)cc1F` (single isomer, unassigned) [Compound 106a, (R) or (S)-3-fluoro-N′-((5-fluoro-2,4-diisopropylpyridin-3-yl)carbamoyl)-5-(2-hydroxypropan-2-yl)thiophene-2-sulfonimidamide] stands 40 to 200 nM.

Staying with this test, now noted: Table B2; 2% fetal bovine serum; class symbols; read-out: hTHP-1 IC50.
On to `Cc1c(C(F)(F)F)nc2c(c1NC(=O)N=S(N)(=O)c1cnc(C(C)(O)CO)s1)CCC2` (single isomer, unassigned) [Compound 605a, (S, RS) or (R, RS) 2-(-1,2-dihydroxypropan-2-yl)-N′-((3-methyl-2-(trifluoromethyl)-6,7-dihydro-5H-cyclopenta[b]pyridin-4-yl)carbamoyl)thiazole-5-sulfonimidamide], for which the IC50 fell in the range of 200 to 1000 nM.
The same measure, in the same setting: under `C[C@@H]1CCc2c1nc1c(c2NC(=O)N=S(N)(=O)c2sc(CN(C)C)cc2F)CCC1` (single isomer, unassigned) [Compound 636b, (R) or (S)-5-((Dimethylamino)methyl)-3-fluoro-N′-(((R)-3-methyl-1,2,3,5,6,7-hexahydrodicyclopenta [b,e]pyridin-8-yl)carbamoyl) thiophene-2-sulfonimidamide] stands 40 to 200 nM; under `Cc1c(C2CC2)nc2c(c1NC(=O)N=S(N)(=O)c1cc(C(C)(C)O)n(-c3ccccc3)n1)CCC2` (single isomer, unassigned) [Compound 651a, (S) or (R)-N′-((2-cyclopropyl-3-methyl-6,7-dihydro-5H-cyclopenta[b]pyridin-4-yl)carbamoyl)-5-(2-hydroxypropan-2-yl)-1-phenyl-1H-pyrazole-3-sulfonimidamide], 5000 to 30000 nM; under `CC1(C)CCc2c1nc1c(c2NC(=O)N=S(N)(=O)c2sc(C(C)(O)CO)cc2F)CCC1` (single isomer, unassigned) [Compound 699c, (R, S) and (S, S) or (S, R) and (R, R)-5-(1,2-Dihydroxypropan-2-yl)-N′-((3,3-dimethyl-1,2,3,5,6,7-hexahydrodicyclopenta [b,e]pyridin-8-yl)carbamoyl)-3-fluorotliophene-2-sulfonimidamide], 5000 to 30000 nM.
In the case of `CCn1cc(Cl)c(S(N)(=O)=NC(=O)Nc2c(C)c(C(F)(F)F)nc3c2CCC3)n1` (single isomer, unassigned) [Compound 729b, (R) or (S)-4-Chloro-1-ethyl-N′-((3-methyl-2-(trifluoromethyl)-6,7-dihydro-5H-cyclopenta[b]pyridin-4-yl)carbamoyl)-1H-pyrazole-3-sulfonimidamide], the IC50 lay within 40 to 200 nM.
Same read-out and setting: under `CC1(C)CCc2c1nc1c(c2NC(=O)N=S(N)(=O)c2cnc(C(C)(O)CO)s2)CCC1` (single isomer, unassigned) [Compound 201a, (R, R) or (S, R) or (R, S) or (S, S)-2-(1,2-Dihydroxypropan-2-yl)-N′-((3,3-dimethyl-1,2,3,5,6,7-hexahydrodicyclopenta [b,e]pyridin-8-yl)carbamoyl) thiazole-5-sulfonimidamide] stands 8 to 40 nM; under `Cc1c(C2CC2)nc2c(c1NC(=O)N=S(N)(=O)c1cc(C(C)(C)O)cs1)CCC2C` (single isomer, unassigned) [Compound 656c, (S, R) or (S, S) or (R, S) or (R, R)-N′-((2-Cyclopropyl-3,7-dimethyl-6,7-dihydro-5H-cyclopenta[b]pyridin-4-yl)carbamoyl)-4-(2-hydroxypropan-2-yl)thiophene-2-sulfonimidamide], 5000 to 30000 nM.

Still in this test, the particulars now being: Table B4; 2% fetal bovine serum; class symbols; read-out: hTHP-1 IC50.
As to `NS(=O)(=NC(=O)Nc1c2c(nc(C(F)(F)F)c1-c1ccccc1)CCC2)c1nn(C(F)F)cc1F` (single isomer, unassigned) [Example 765, (R) or (S)-1-(difluoromethyl)-4-fluoro-N′-((3-phenyl-2-(trifluoromethyl)-6,7-dihydro-5H-cyclopenta [b]pyridin-4-yl)carbamoyl)-1H-pyrazole-3-sulfonimidamide], the IC50 lay in the range of 8 to 40 nM.
